Values quoted from earlier work, collected in patent US20220259114A1, “Microbe-Based Compositions for Restoring Soil Health and Controlling Pests” (Locus Agriculture IP Company, LLC, priority 2019, published 2022).
*1 amine or outer side, *2 acyl side, *3 side chain or, on linkers, in order; H or OH if unused. Where a SMILES comes first, the peptide text is derived from it. Bridges are numbered along the chain shown (N, C = ends). [ ]: non-standard residue; d: D form. X1 = CC(C)CCCCCCCCC[C@H](CC(=O)[*:1])O[*:2]

Legend:
[1] = reduced from 72 mN/m; concentration as low as 0.005%
[2] = stated 'in one embodiment'; species and route not given
[3] = system: plant pathogens including bacteria, fungi, viruses and nematodes; conditions: in most cases does not exceed

Compound | surface tension of water after reduction [1] [mN/m] | toxic dose [2] | effective SLP concentration for biopesticide activity, in most cases [3] [mg/L]
CC(C)CCCCCCCCC[C@@H]1CC(=O)N[C@@H](CCC(=O)O)C(=O)N[C@@H](CC(C)C)C(=O)N[C@H](CC(C)C)C(=O)N[C@@H](C(C)C)C(=O)N[C@@H](CC(=O)O)C(=O)N[C@H](CC(C)C)C(=O)N[C@@H](CC(C)C)C(=O)O1 [Surfactin, surfactin] (EL[dL]VD[dL]L; linker N-C via X1) | 27 |  | 
sophorolipid [SLP] |  | > 375 mg/kg of body weight | ≤ 3
